Data from patent US12352767B2, “Method of treating cognitive decline associated with neurological diseases based on a decrease in FLT4 expression or activity” (University of Virginia Patent Foundation, priority 2018, dated 2025).

Test system: brain hippocampus and cortex
Assay: T1-weighted MRI of brain influx of i.c.m. gadolinium, Lymph4D analysis
Format: in vivo, mice
From the text: Measurement of gadolinium influx rate and modeling of tracer advection-diffusion within the brain were achieved using Lymph4D, a software developed in-house and available for revision purposes on the following link on the world wide web: viva-lab.ece.virginia.edu/lymph4d. To allow for a direct comparison between the different conditions, the MRI stacks Si(x, y, z, t) of the imaged mice (4 vehicle and 4 Visudyne) were aligned to a Visudyne stack V1(x, y, z, t), chosen as reference. Before proceeding with the automated registration in the (x, y) plane, the stacks were manually aligned along the z (sagittal) direction, to ensure the correspondence between (x, y) (transversal plane) slices, and cropped both in the z and t (time) direction, to ensure that each set of coordinates (x, y, z, t) contained meaningful data. To optimize the slice alignment in the (x, y) plane, scale pyramids (Adelson, E. H., Anderson, C. H., Bergen, J. R., Burt, P. J. & Ogden, J. M. Pyramid methods in image processing. RCA engineer 29, 33-41, (1984).) (3 levels deep) were computed for both the image to be registered and the reference. Starting from the coarser scale, the optimal non-reflective transformation matrix (restricted to translation, rotation, and scaling) was evaluated by using an iterative process based on the steep gradient descent method with a mean square error (MSE) cost function. After reaching algorithm convergence at the largest scale, or the maximum number of allowed iterations, the alignment was refined using progressively finer scales. A linear interpolation mapping was then used to reconstruct the image registered using the optimized transformation matrix. The following alignment strategy was used. Given a stack Si to be aligned to V1, for every slice zj(t)=Si(x, y, zj, t) at a given location in the sagittal direction (z=zj), the optimal transformation matrix was evaluated at every available time (t) and the quality (MSE) of the resulting alignment measured. […] Also, after the alignment, contrast measurement, providing the difference between the maximum and the minimum values observed along the temporal direction during the experiment duration (variability in tracer signal intensity over time), was evaluated for a given (x, y, z) location in the S; stack using: […]
The model was discretized using the forward-time central-space (FTCS) finite difference method (Ferziger, J. H. & Perić, M. Finite Difference Methods. In: Computational Methods for Fluid Dynamics. 3rd edition, 39-69, Springer, Berlin, Heidelberg, (2002).) after the following assumptions. The concentration (x, t) was considered proportional to the measured MRI signal intensity. […]

## verteporfin [Visudyne]
7 days after Visudyne/photoconversion, Gd 25 mM i.c.m., 16 MRI sequences (~52 min), vs vehicle
  Gd signal gain in hippocampus and cortex: significantly lower
Visudyne-treated mice, over ~52 min
  contrast in Gd signal intensity in the ventricles: higher contrast in signal intensity
After meningeal lymphatic ablation with Visudyne, advection-diffusion model in Lymph4D
  isotropic diffusion coefficient of Gd in the brain: lower coefficient values
One week after Visudyne/photoconversion, Gd 25 mM i.c.m., vs vehicle/photoconversion
  Gd signal intensity gain (relative to sequence 1) in the brain cortex: significant decrease
